# Laboratory results published in BindingDB's records for doi:10.1016/j.bmcl.2009.01.008 (Pfizer, 2009).
# Where “and” joins values, the source holds several entries; their conditions need not be identical. Identical values can stand only once.
# Test: Antagonist activity at human recombinant CCR5 expressed in human HeLa-P4 cells assessed as inhibition of human HeLa-P4 cells binding to HIV1 gp160 expressing CHO cells by cell-cell fusion assay
row,IC50,SMILES
1,49.9 nM,"Cc1nnc(C(C)C)n1C1CCN([C@@H](C)C[C@H](NC(=O)C2CCC(F)(F)CC2)c2ccccc2)CC1 [4,4-difluoro-N-((1S,3S)-3-(4-(3-isopropyl-5-methyl-4H-1,2,4-triazol-4-yl)piperidin-1-yl)-1-phenylbutyl)cyclohexanecarboxamide]"
2,187 nM,"Cc1nnc(C(C)C)n1C1CCN(C(C)C[C@H](NC(=O)N2CCN(C)CC2)c2ccccc2)CC1 (mixture of isomers) [(+/-)-N-((1S)-3-(4-(3-isopropyl-5-methyl-4H-1,2,4-triazol-4-yl)piperidin-1-yl)-1-phenylbutyl)-4-methylpiperazine-1-carboxamide]"
3,176 nM,"Cc1nnc(C(C)C)n1C1CCN(C(C)C[C@H](NC(=O)N2CCOCC2)c2ccccc2)CC1 (mixture of isomers) [(+/-)-N-((1S)-3-(4-(3-isopropyl-5-methyl-4H-1,2,4-triazol-4-yl)piperidin-1-yl)-1-phenylbutyl)morpholine-4-carboxamide]"
4,89.2 nM,"CC(=O)N[C@@H](CC(C)N1CCC(n2c(C)nnc2C(C)C)CC1)c1ccccc1 (mixture of isomers) [(+/-)-N-((1S)-3-(4-(3-isopropyl-5-methyl-4H-1,2,4-triazol-4-yl)piperidin-1-yl)-1-phenylbutyl)acetamide]"
5,164 nM,"Cc1nnc(C(C)C)n1C1CCN(C(C)C[C@H](NC(=O)C2CCOCC2)c2ccccc2)CC1 (mixture of isomers) [(+/-)-N-((1S)-3-(4-(3-isopropyl-5-methyl-4H-1,2,4-triazol-4-yl)piperidin-1-yl)-1-phenylbutyl)tetrahydro-2H-pyran-4-carboxamide]"
6,315 nM,"COC(=O)N[C@@H](CC(C)N1CCC(n2c(C)nnc2C(C)C)CC1)c1ccccc1 (mixture of isomers) [(+/-)-methyl(1S)-3-(4-(3-isopropyl-5-methyl-4H-1,2,4-triazol-4-yl)piperidin-1-yl)-1-phenylbutylcarbamate]"
7,6.12 nM,"Cc1nnc(C(C)C)n1C1CCN(C(C)C[C@H](NC(=O)C2CCS(=O)(=O)CC2)c2ccccc2)CC1 (mixture of isomers) [(+/-)-1,1-Dioxo-hexahydro-1lambda*6*-thiopyran-4-carboxylic acid{(S)-3-[4-(3-isopropyl-5-methyl-[1,2,4]triazol-4-yl)-piperidin-1-yl]-1-phenyl-butyl}-amide]"
8,3.11 nM,"Cc1nnc(C(C)C)n1C1CCN(C(C)C[C@H](NC(=O)C(C)C)c2ccccc2)CC1 (mixture of isomers) [(+/-)-N-((1S)-3-(4-(3-isopropyl-5-methyl-4H-1,2,4-triazol-4-yl)piperidin-1-yl)-1-phenylbutyl)isobutyramide]"
9,0.48 nM,"Cc1nnc(C(C)C)n1C1CCN([C@H](C)C[C@H](NC(=O)C2CC(F)(F)C2)c2ccccc2)CC1 [3,3-difluoro-N-((1S,3R)-3-(4-(3-isopropyl-5-methyl-4H-1,2,4-triazol-4-yl)piperidin-1-yl)-1-phenylbutyl)cyclobutanecarboxamide]"
10,3.16 nM,"Cc1nnc(C(C)C)n1C1CCN(C(C)C[C@H](NC(=O)CC2CC2)c2ccccc2)CC1 (mixture of isomers) [(+/-)-2-cyclopropyl-N-((1S)-3-(4-(3-isopropyl-5-methyl-4H-1,2,4-triazol-4-yl)piperidin-1-yl)-1-phenylbutyl)acetamide]"
11,0.513 nM,"Cc1nnc(C(C)C)n1C1CCN(C(C)C[C@H](NC(=O)C2CCCCC2)c2ccccc2)CC1 (mixture of isomers) [(+/-)-N-((1S)-3-(4-(3-isopropyl-5-methyl-4H-1,2,4-triazol-4-yl)piperidin-1-yl)-1-phenylbutyl)cyclohexanecarboxamide]"
12,4.87 nM,"Cc1nnc(C(C)C)n1C1CCN(C(C)C[C@H](NC(=O)C2CC[S+]([O-])CC2)c2ccccc2)CC1 (mixture of isomers) [(+/-)-1-Oxo-hexahydro-1lambda*4*-thiopyran-4-carboxylic acid{(S)-3-[4-(3-isopropyl-5-methyl-[1,2,4]triazol-4-yl)-piperidin-1-yl]-1-phenyl-butyl}-amide]"
13,28.7 nM,"CC(=O)N1CCC(C(=O)N[C@@H](CC(C)N2CCC(n3c(C)nnc3C(C)C)CC2)c2ccccc2)CC1 (mixture of isomers) [(+/-)-1-acetyl-N-((1S)-3-(4-(3-isopropyl-5-methyl-4H-1,2,4-triazol-4-yl)piperidin-1-yl)-1-phenylbutyl)piperidine-4-carboxamide]"
14,0.137 nM,"Cc1nnc(C(C)C)n1C1CCN(C(C)C[C@H](NC(=O)C2CCCC2)c2ccccc2)CC1 (mixture of isomers) [(+/-)-N-((1S)-3-(4-(3-isopropyl-5-methyl-4H-1,2,4-triazol-4-yl)piperidin-1-yl)-1-phenylbutyl)cyclopentanecarboxamide]"
15,3.93 nM,"Cc1nnc(C(C)C)n1C1CCN(C(C)C[C@H](NC(=O)C2CC2)c2ccccc2)CC1 (mixture of isomers) [(+/-)-N-((1S)-3-(4-(3-isopropyl-5-methyl-4H-1,2,4-triazol-4-yl)piperidin-1-yl)-1-phenylbutyl)cyclopropanecarboxamide]"
16,1.3 nM and 0.38 nM,Cc1nnc(C(C)C)n1C1CCN(C(C)C[C@H](NC(=O)C2CC(F)(F)C2)c2ccccc2)CC1 (mixture of isomers)
17,52.8 nM,"Cc1nnc(C(C)C)n1C1CCN(C(C)C[C@H](NC(=O)COCC(F)(F)F)c2ccccc2)CC1 (mixture of isomers) [(+/-)-N-((1S)-3-(4-(3-isopropyl-5-methyl-4H-1,2,4-triazol-4-yl)piperidin-1-yl)-1-phenylbutyl)-2-(2,2,2-trifluoroethoxy)acetamide]"
18,85.3 nM,"Cc1nnc(C(C)C)n1C1CCN(C(C)C[C@H](NC(=O)CC(F)(F)F)c2ccccc2)CC1 (mixture of isomers) [(+/-)-3,3,3-trifluoro-N-((1S)-3-(4-(3-isopropyl-5-methyl-4H-1,2,4-triazol-4-yl)piperidin-1-yl)-1-phenylbutyl)propanamide]"

row,SMILES,IC50
1,"Cc1nc(C(C)C)n(C2CC3CCC(C2)N3CC[C@H](NC(=O)C2CCC(F)(F)CC2)c2ccccc2)n1 (stereo partly drawn) [4,4-difluoro-N-((1S)-3-(3-(5-isopropyl-3-methyl-1H-1,2,4-triazol-1-yl)-8-azabicyclo[3.2.1]octan-8-yl)-1-phenylpropyl)cyclohexanecarboxamide]",1.4 nM
